{
  "source": "patent US10464912B2",
  "about": "“Choline cocrystal of epalrestat” (BIONEVIA PHARMACEUTICALS, INC., priority 2008, dated 2019)",
  "conditions": "ambient temperature, after approximately 24 hours, FIG. 6A",
  "protocol": "Samples were taken at approximately 1, 3, 6, and 24 hours, and analyzed by UV spectrophotometry using a SpectraMax M2 UV-VIS spectrophotometer. Wavelength calibration and photometric accuracy were performed using the SpectraMax Pro 5 software as an internal calibration of the instrument. The detector was zeroed with a reference well on a microplate filled with water on which data were obtained, and those data were subtracted from collected data. Samples were analyzed in the UV range at room temperature in the wells of a 96-well quartz plate.",
  "data": [
    {"smiles": "CC(/C=C1\\SC(=S)N(CC(=O)O)C1=O)=C\\c1ccccc1", "note": "[choline hydrogen diepalrestat]", "values": [
      {"measurement": "dissolved concentration of epalrestat (solubility in water)", "value": 249, "unit": "µg/mL"}
    ]}
  ]
}
